From patent US10399940B2, “Substituted pyrrolidines and methods of use” (AbbVie S.à.r.l., priority 2016, dated 2019) come the findings set out here.

SMILES strings stand for the structures. Where two headings read alike, the source gives them in different places.

This experiment addresses T1, F508delCFTR (Homo sapiens, UniProt P13569, DEL508-508).
T1 construct: expressed in transfected cells; host or cells: CFBE41o- (human lung derived epithelial cell line), doxycycline-inducible expression
In words: Cell Surface Expression-Horse Radish Peroxidase (CSE-HRP) assay. In kind it is cell-based. The settings on record: CFBE41o-F508delCFTR-HRP cells; for Maximum % activity (with co-corrector): with co-corrector (2 μM); for Maximum % activity (with co-corrector) / Maximum % activity (without co-corrector): normalized to on-plate positive control, highest concentration 20 μM. The essentials: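 CFBE41o- cells expressed F508delCFTR with HRP in the fourth exofacial loop, induced by 0.5 μg/mL doxycycline for 72 h at 37 °C. Compounds alone or with 2 μM co-corrector ran 18–24 h at 33 °C, 8-point 3-fold from 20 μM. Washed-cell luminol luminescence was normalized to DMSO and positive control, fitted sigmoidally for EC50 (three plates).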

The mark [1] stands for this setting: test compound without co-corrector, 18-24 hours at 33° C., read-out: EC50 (without co-corrector).
Setting [2] is: with co-corrector (2 μM of 3-[(2R,4R)-4-({[1-(2,2-difluoro-1,3-benzodioxol-5-yl)cyclopropyl]carbonyl}amino)-7-methoxy-3,4-dihydro-2H-chromen-2-yl]benzoic acid), read-out: EC50 (with co-corrector).

T1 sequence (P13569 with tags, fused parts or gaps DEL508-508): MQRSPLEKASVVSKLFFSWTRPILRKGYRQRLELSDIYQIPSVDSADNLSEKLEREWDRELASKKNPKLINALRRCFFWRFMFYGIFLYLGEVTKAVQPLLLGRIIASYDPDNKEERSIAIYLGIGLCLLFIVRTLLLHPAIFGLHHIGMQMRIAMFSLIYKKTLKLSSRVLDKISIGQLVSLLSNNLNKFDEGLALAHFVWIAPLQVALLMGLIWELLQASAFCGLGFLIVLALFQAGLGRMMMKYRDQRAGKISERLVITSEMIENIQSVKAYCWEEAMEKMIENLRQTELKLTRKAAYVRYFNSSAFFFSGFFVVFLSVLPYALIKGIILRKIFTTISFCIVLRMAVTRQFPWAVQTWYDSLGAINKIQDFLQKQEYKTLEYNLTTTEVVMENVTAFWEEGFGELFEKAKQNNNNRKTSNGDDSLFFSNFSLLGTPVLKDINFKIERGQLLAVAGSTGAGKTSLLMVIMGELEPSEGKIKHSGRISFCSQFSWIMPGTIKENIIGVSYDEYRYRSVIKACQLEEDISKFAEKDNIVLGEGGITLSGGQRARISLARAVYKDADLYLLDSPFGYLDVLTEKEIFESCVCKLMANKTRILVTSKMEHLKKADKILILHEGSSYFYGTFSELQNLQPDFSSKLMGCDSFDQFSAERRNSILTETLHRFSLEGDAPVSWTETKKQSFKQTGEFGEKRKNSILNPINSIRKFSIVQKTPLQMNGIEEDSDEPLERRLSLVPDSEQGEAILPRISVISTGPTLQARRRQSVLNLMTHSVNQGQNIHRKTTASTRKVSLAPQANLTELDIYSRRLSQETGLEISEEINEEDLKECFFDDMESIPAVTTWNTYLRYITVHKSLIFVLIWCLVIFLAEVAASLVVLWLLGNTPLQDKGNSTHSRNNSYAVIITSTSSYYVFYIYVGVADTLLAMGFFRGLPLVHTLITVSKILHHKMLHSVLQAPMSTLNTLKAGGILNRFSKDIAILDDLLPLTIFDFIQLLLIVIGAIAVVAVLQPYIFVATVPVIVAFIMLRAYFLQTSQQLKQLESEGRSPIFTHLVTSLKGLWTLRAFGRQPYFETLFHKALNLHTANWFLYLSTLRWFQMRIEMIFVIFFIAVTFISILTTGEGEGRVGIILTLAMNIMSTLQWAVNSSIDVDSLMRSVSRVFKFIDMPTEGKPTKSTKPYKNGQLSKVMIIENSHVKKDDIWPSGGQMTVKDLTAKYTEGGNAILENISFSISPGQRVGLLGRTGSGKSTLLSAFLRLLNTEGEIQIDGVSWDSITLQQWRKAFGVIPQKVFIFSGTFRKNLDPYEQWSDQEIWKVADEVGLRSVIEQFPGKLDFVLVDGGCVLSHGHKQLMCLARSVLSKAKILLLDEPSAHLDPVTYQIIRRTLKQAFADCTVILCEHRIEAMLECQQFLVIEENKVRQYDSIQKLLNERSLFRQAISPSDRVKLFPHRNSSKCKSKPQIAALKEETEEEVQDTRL

Take `COc1ncc(C(F)(F)F)cc1CO[C@H]1[C@H](C(C)(C)C)[C@@H](C(=O)O)N(C(=O)[C@@H]2CCCO2)[C@H]1c1cccc(Br)c1` [Example 118, (2S,3R,4S,5S)-5-(3-bromophenyl)-3-tert-butyl-4-{[2-methoxy-5-(trifluoromethyl)pyridin-3-yl]methoxy}-1-[(2S)-oxolane-2-carbonyl]pyrrolidine-2-carboxylic acid]: the “Maximum % activity (with co-corrector)” value was “+++ (≥350)”; the “Maximum % activity (without co-corrector)” value was “++ (≥100 and <200)”. Besides, the EC50 under setting [1] was 1000 to 10000 nM. In addition, under setting [2], the EC50 is below 1000 nM.
As to `COc1ncc(C(F)(F)F)cc1CO[C@H]1[C@H](C(C)(C)C)[C@@H](C(=O)O)N(C(=O)[C@H]2CCCCO2)[C@H]1c1ccccc1Cl` [Example 104, (2S,3R,4S,5S)-3-tert-butyl-5-(2-chlorophenyl)-4-{[2-methoxy-5-(trifluoromethyl)pyridin-3-yl]methoxy}-1-[(2R)-oxane-2-carbonyl]pyrrolidine-2-carboxylic acid], the “Maximum % activity (with co-corrector)” value is “+++ (≥350)”; the “Maximum % activity (without co-corrector)” value was “++ (≥100 and <200)”. Also, under setting [1], the 50% effective concentration (EC50) is 1000 to 10000 nM. Under setting [2], the EC50 was in the range of 1000 to 10000 nM.
As for `CO[C@H]1CCC[C@H](C(=O)N2[C@H](c3ccccc3)[C@H](Oc3cc(C(F)(F)F)cc(C)n3)[C@@H](C(C)(C)C)[C@@H]2C(=O)O)C1` [Example 28, (2R,3S,4R,5R)-3-tert-butyl-1-[(1S,3S)-3-methoxycyclohexane-1-carbonyl]-4-{[6-methyl-4-(trifluoromethyl)pyridin-2-yl]oxy}-5-phenylpyrrolidine-2-carboxylic acid], the “Maximum % activity (with co-corrector)” value was “+++ (≥350)”; the “Maximum % activity (without co-corrector)” value was “++ (≥100 and <200)”. Under setting [1], the EC50 was in the range of 1000 to 10000 nM. Also, the EC50 under setting [2] lay within 1000 to 10000 nM.
As for `CC(C)Oc1ncccc1[C@H]1[C@@H](OCc2coc3ccc(C(F)(F)F)cc23)[C@H](C(C)(C)C)[C@@H](C(=O)O)N1C(=O)C1CCCCC1` [Example 279, (2S,3R,4S,5S)-3-tert-butyl-1-(cyclohexanecarbonyl)-5-{2-[(propan-2-yl)oxy]pyridin-3-yl}-4-{[5-(trifluoromethyl)-1-benzofuran-3-yl]methoxy}pyrrolidine-2-carboxylic acid], the “Maximum % activity (with co-corrector)” value is recorded as “+++ (≥350)”; the “Maximum % activity (without co-corrector)” value was “++ (≥100 and <200)”. For the same molecule, the EC50 under setting [1] is below 1000 nM. In addition, the EC50 under setting [2] was below 1000 nM.
Regarding `COc1ncc(C2CCC2)cc1CO[C@H]1[C@H](C(C)(C)C)[C@@H](C(=O)O)N(C(=O)C2CCCCC2)[C@H]1c1ccccc1C1CC1` [Example 182, (2S,3R,4S,5S)-3-tert-butyl-4-[(5-cyclobutyl-2-methoxypyridin-3-yl)methoxy]-1-(cyclohexanecarbonyl)-5-(2-cyclopropylphenyl)pyrrolidine-2-carboxylic acid], the “Maximum % activity (with co-corrector)” value is reported as “+++ (≥350)” and the “Maximum % activity (without co-corrector)” value is “+++ (≥200)”. Also, the concentration for a half-maximal effect (EC50) under setting [1] lay in the range of 1000 to 10000 nM. For the same molecule, the EC50 under setting [2] was below 1000 nM.
On to `COc1ncc(C2CCC2)cc1CO[C@H]1[C@H](C(C)(C)C)[C@@H](C(=O)O)N(C(=O)C2CCCCC2)[C@H]1c1ccccc1F` [Example 56, (2S,3R,4S,5S)-3-tert-butyl-4-[(5-cyclobutyl-2-methoxypyridin-3-yl)methoxy]-1-(cyclohexanecarbonyl)-5-(2-fluorophenyl)pyrrolidine-2-carboxylic acid], for which the “Maximum % activity (with co-corrector)” value is on record as “+++ (≥350)”; the “Maximum % activity (without co-corrector)” value is “++ (≥100 and <200)”. Moreover, the EC50 under setting [1] was below 1000 nM. In addition, the EC50 under setting [2] was below 1000 nM.
`COc1ncc(C2CCC2)cc1CO[C@H]1[C@H](C(C)(C)C)[C@@H](C(=O)O)N(C(=O)OC(C)C(F)(F)F)[C@H]1c1cccnc1OC(C)C` (stereo partly drawn) [Example 265, (2S,3R,4S,5S)-3-tert-butyl-4-[(5-cyclobutyl-2-methoxypyridin-3-yl)methoxy]-5-{2-[(propan-2-yl)oxy]pyridin-3-yl}-1-{[(1,1,1-trifluoropropan-2-yl)oxy]carbonyl}pyrrolidine-2-carboxylic acid]: the “Maximum % activity (with co-corrector)” value is given as “+++ (≥350)”; the “Maximum % activity (without co-corrector)” value was “++ (≥100 and <200)”. For the same molecule, the 50% effective concentration (EC50) under setting [1] is below 1000 nM. Further, the concentration for a half-maximal effect (EC50) under setting [2] is below 1000 nM.
Consider `COc1nc2ccccc2cc1CO[C@H]1[C@H](C(C)(C)C)[C@@H](C(=O)O)N(C(=O)[C@@H]2CCCO2)[C@H]1c1ccccc1Br` [Example 151, (2S,3R,4S,5S)-5-(2-bromophenyl)-3-tert-butyl-4-[(2-methoxyquinolin-3-yl)methoxy]-1-[(2S)-oxolane-2-carbonyl]pyrrolidine-2-carboxylic acid], for which the “Maximum % activity (with co-corrector)” value was “++ (≥150 and <350)”; the “Maximum % activity (without co-corrector)” value is on record as “+ (<100)”. In addition, the 50% effective concentration (EC50) under setting [1] was below 1000 nM. In addition, the EC50 under setting [2] was below 1000 nM.
Take `COc1ncc(-c2ccc(F)cc2F)cc1CO[C@H]1[C@H](C(C)(C)C)[C@@H](C(=O)O)N(C(=O)OC(C)C)[C@H]1c1ccccc1` [Example 68, (2S,3R,4S,5S)-3-tert-butyl-4-{[5-(2,4-difluorophenyl)-2-methoxypyridin-3-yl]methoxy}-5-phenyl-1-{[(propan-2-yl)oxy]carbonyl}pyrrolidine-2-carboxylic acid]: the “Maximum % activity (with co-corrector)” value is reported as “+++ (≥350)” and the “Maximum % activity (without co-corrector)” value is “+ (<100)”. The EC50 under setting [1] was below 1000 nM. Besides, under setting [2], the concentration giving a half-maximal response (EC50) lay in the range of 1000 to 10000 nM.
The like results for `COc1ncc(-c2ccccc2F)cc1CO[C@H]1[C@H](C(C)(C)C)[C@@H](C(=O)O)N(C(=O)OC(C)C)[C@H]1c1ccccc1` [Example 66, (2S,3R,4S,5S)-3-tert-butyl-4-{[5-(2-fluorophenyl)-2-methoxypyridin-3-yl]methoxy}-5-phenyl-1-{[(propan-2-yl)oxy]carbonyl}pyrrolidine-2-carboxylic acid] were, in that order, “+++ (≥350)”, “+ (<100)”, below 1000 nM and 1000 to 10000 nM.
For `COc1ncc(C(F)(F)F)cc1CO[C@H]1[C@H](C(C)(C)C)[C@@H](C(=O)O)N(C(=O)[C@@H]2CCCCO2)[C@H]1c1ccccc1-c1ccoc1` [Example 198, (2S,3R,4S,5S)-3-tert-butyl-5-[2-(furan-3-yl)phenyl]-4-{[2-methoxy-5-(trifluoromethyl)pyridin-3-yl]methoxy}-1-[(2S)-oxane-2-carbonyl]pyrrolidine-2-carboxylic acid], in that order: “+++ (≥350)”, “+++ (≥200)”, 1000 to 10000 nM and 1000 to 10000 nM.
For `COc1nc(C(C)(C)C)ccc1CO[C@H]1[C@H](C(C)(C)C)[C@@H](C(=O)O)N(C(=O)C2CCCCC2)[C@H]1c1cccnc1OC(C)C` [Example 291, (2S,3R,4S,5S)-3-tert-butyl-4-[(6-tert-butyl-2-methoxypyridin-3-yl)methoxy]-1-(cyclohexanecarbonyl)-5-{2-[(propan-2-yl)oxy]pyridin-3-yl}pyrrolidine-2-carboxylic acid], in that order: “+++ (≥350)”, “+++ (≥200)”, 1000 to 10000 nM and 1000 to 10000 nM.
On to `COc1ncc(C(F)(F)F)cc1CO[C@H]1[C@H](C(C)(C)C)[C@@H](C(=O)O)N(C(=O)OC(C)C)[C@H]1c1cccc(C(C)(C)C)c1` [Example 153, (2S,3R,4S,5S)-3-tert-butyl-5-(3-tert-butylphenyl)-4-{[2-methoxy-5-(trifluoromethyl)pyridin-3-yl]methoxy}-1-{[(propan-2-yl)oxy]carbonyl}pyrrolidine-2-carboxylic acid], for which the “Maximum % activity (with co-corrector)” value is “++ (≥150 and <350)”; the “Maximum % activity (without co-corrector)” value was “+ (<100)”. For the same molecule, the EC50 under setting [1] is below 1000 nM. In addition, under setting [2], the EC50 was below 1000 nM.
For the molecule `COc1ncc(C2CCC2)cc1CO[C@H]1[C@H](C(C)(C)C)[C@@H](C(=O)O)N(C(=O)[C@@H]2CCCO2)[C@H]1c1ccccc1C1CC1` [Example 149, (2S,3R,4S,5S)-3-tert-butyl-4-[(5-cyclobutyl-2-methoxypyridin-3-yl)methoxy]-5-(2-cyclopropylphenyl)-1-[(2S)-oxolane-2-carbonyl]pyrrolidine-2-carboxylic acid], the “Maximum % activity (with co-corrector)” value is “+++ (≥350)”; the “Maximum % activity (without co-corrector)” value is “++ (≥100 and <200)”. Besides, under setting [1], the EC50 was 1000 to 10000 nM. In addition, under setting [2], the EC50 is below 1000 nM.
For the molecule `COc1ncc(C2CCC2)cc1CO[C@H]1[C@H](C(C)(C)C)[C@@H](C(=O)O)N(C(=O)[C@@H]2CCCCO2)[C@H]1c1cccnc1OC(C)C` [Example 136, (2S,3R,4S,5S)-3-tert-butyl-4-[(5-cyclobutyl-2-methoxypyridin-3-yl)methoxy]-1-[(2S)-oxane-2-carbonyl]-5-{2-[(propan-2-yl)oxy]pyridin-3-yl}pyrrolidine-2-carboxylic acid], the “Maximum % activity (with co-corrector)” value is given as “+++ (≥350)”; the “Maximum % activity (without co-corrector)” value is “++ (≥100 and <200)”. Besides, the EC50 under setting [1] is below 1000 nM. Further, the EC50 under setting [2] is below 1000 nM.
